The nature of data set [1]: Pharmacokinetic study in male beagle dogs, intragastric. The conditions noted are these: dog, 5 mg/kg. It is filed as in vivo. The procedure:
Three adult male beagle dogs were fasted overnight before test. The test drugs were each suspended in a solution of 0.5% methylcellulose (MC) and 0.1% SDS in deionized water (w/w/v), and the suspension, each at a concentration of 1 mg/mL, was administered intragastrically at 5 mL/kg. Blood was collected 15 min, 30 min, 1 h, 2 h, 4 h, 6 h, 8 h and 24 h after administration. Animals were lightly anesthetized with chloral hydrate, and approximately 0.5 mL of whole blood was collected from the forelimb vein using a glass blood collection tube and placed in a heparin anticoagulant tube. The sample was centrifuged at 4° C./4200 rpm for 5 min. All plasma samples were stored in a refrigerator at −80±15° C. prior to analysis. An LC-MS/MS (Waters I Class UPLC-Xevo TQD tandem mass spectrometry) assay for the compounds was established prior to sample analysis. The collected plasma was quantitatively analyzed, plasma concentration-time data of animals were analyzed using WinNonlin (professional edition, version 5.2) software, a non-compartmental model was used for concentration analysis, and the pharmacokinetic parameters of the test compounds were calculated.

In another data set the test system is OCI-LY10. In words: In vitro tumor cell proliferation inhibition, OCI-LY10 (CellTiter-Glo). The format is cell-based. The conditions noted are these: Homo sapiens; OCI-LY10 cells, 72 h. The procedure:
(§1) (1) Method • The tumor cell line (TMD-8/OCY-LY10) was suspended in RPMI1640+FBS10% and cultured in an incubator (37° C., 5% CO2). Cells were passaged periodically, and cells at logarithmic growth phase were collected for plating. • Cell staining was performed with trypan blue and viable cells were counted. • Cell concentration was adjusted to 7000 cells/well with medium. • 90 μL of cell suspension was added to a 96-well plate and cell-free culture medium was added to the blank control wells. • Cells in the 96-well plate were incubated overnight in an incubator (37° C., 5% CO2, 100% relative humidity). • Preparation of 400× compound storage plates: test compounds and reference drug were each dissolved in DMSO and 3× diluted from the highest concentration (400 μM) to the lowest concentration (0.61 μM). • Preparation of 10× compound working solutions: 78 μL of cell culture medium was added to a V-bottom 96-well plate, and 2 μL of the compound was pipetted from the 400× compound storage plate into the 96-well plate. Vehicle control wells and blank control wells were added with 2 μL of DMSO. […] Inhibition rates of compounds at different concentrations were calculated in Excel, followed by plotting the inhibition curves and calculating IC50 values with GraphPad Prism.
A general note: In ATP-based viability assays light output follows the ATP content of the culture.

For a further data set, the system named is TMD-8. In words: In vitro tumor cell proliferation inhibition, TMD-8 (CellTiter-Glo). The format is cell-based. The conditions noted are these: Homo sapiens, TMD8; TMD-8 cells, 72 h. As to the method:
as §1

The target in another data set is BTK(wt) (Homo sapiens (Human), UniProt Q06187). In words: pBTK inhibition in HEK293 cells transfected with BTK(wt) (ELISA). The format is cell-based. The settings on record: 2 h. The procedure: (§2) For positive (high signal) controls, cells were treated with 0.5% DMSO alone. […] The absorbance was read at 450 nm. • Based on the absorbance readings of the positive and negative control values, the % inhibition value was calculated according to the following formula: (% INH=((positive control−sample)/(positive control−negative control))×100. • The Z′ value was calculated based on the following formula: 1−((3×standard deviation of positive+3×standard deviation of negative)/(mean positive−mean negative)). • The […] was plotted using GraphPad Prism. • IC50 values were determined after sigmoidal dose-response curve fitting.
Sequence of BTK(wt) (Q06187 whole entry): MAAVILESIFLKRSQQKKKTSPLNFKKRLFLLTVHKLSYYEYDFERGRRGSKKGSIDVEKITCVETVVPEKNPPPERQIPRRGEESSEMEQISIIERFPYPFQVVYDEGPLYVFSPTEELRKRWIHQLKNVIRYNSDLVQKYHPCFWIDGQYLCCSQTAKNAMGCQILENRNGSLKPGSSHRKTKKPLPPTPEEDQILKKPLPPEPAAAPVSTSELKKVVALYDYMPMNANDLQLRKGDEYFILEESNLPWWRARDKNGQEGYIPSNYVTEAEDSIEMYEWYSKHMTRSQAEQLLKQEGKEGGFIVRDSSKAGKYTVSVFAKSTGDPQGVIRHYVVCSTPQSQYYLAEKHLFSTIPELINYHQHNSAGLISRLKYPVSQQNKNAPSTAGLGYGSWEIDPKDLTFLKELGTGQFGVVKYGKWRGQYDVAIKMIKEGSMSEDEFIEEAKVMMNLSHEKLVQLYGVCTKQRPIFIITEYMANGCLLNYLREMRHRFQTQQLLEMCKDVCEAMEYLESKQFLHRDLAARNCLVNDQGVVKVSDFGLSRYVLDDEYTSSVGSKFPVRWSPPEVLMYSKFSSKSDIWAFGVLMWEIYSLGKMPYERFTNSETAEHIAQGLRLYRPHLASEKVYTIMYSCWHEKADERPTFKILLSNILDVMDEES
(ELISA stands for enzyme-linked immunosorbent assay.)

In the next data set the target is BTK(C481S) (Homo sapiens (Human), UniProt Q06187, C481S). Put plainly: pBTK inhibition in HEK293 cells transfected with BTK(C481S) (ELISA). The settings on record: 2 h. The format is cell-based. The procedure: as §2
Sequence of BTK(C481S) (Q06187 whole entry C481S): as the sequence (Q06187 whole entry) above, with C481S counted along it
For the next data set, the system named is OCI-LY10 xenograft tumor. Put plainly: OCI-LY10 xenograft tumor model. The format is in vivo. The conditions noted are these: for TGI: bid. As to the method:
CB17/SCID female mice with serious immune deficiency were purchased from Beijing Vital River Laboratory Animal Technology Co., Ltd. and bred in SPF animal houses. Human OCI-LY10 cells (Shanghai Junrui-UFBN0102) were cultured in an RPMI 1640 culture medium containing 10% fetal bovine serum, 100 U/mL penicillin and 100 μg/mL streptomycin through monolayer culture in vitro in an incubator (37° C., 5% C02). Routine treatment was performed twice a week for passaging. At a cell saturation of 80%-90% and a required number, the cells were harvested and counted. 0.2 mL (1×10^7) of OCI-LY10 cells (together with matrigel at a volume ratio of 1:1) were subcutaneously inoculated into the right back of each mouse, and the tumor size could be measured about one week after inoculation. Tumor size was measured using a vernier caliper and tumor volume was calculated using the following formula: tumor volume=(length×width^2)/2.

SMILES strings stand for the structures. “And” between values parts separate entries of the source, which are not always exact repeats. Identical values can stand only once. Like-named read-outs stand apart in the source and are kept apart here.

Experimental findings from patent publication US11420975B2, “Substituted imidazo[1,5-a]pyrazines as Bruton's tyrosine kinase inhibitors” (TRANSTHERA SCIENCES (NANJING), INC., priority 2018, dated 2022) are described below.

By Cmax is commonly meant the highest concentration seen after dosing. In general, AUC(0-inf) refers to total exposure, with the tail of the curve extrapolated. What is called Tmax is the time from dosing to the highest level. The term half-life denotes the time needed for the level to fall by half in the phase considered. Low readings indicate rapid decline, high ones slow decline. One may read the IC50 as the concentration that gives 50% inhibition. A high value points to a need for much substance.

`Nc1nccn2c(C34CCC(NC(=O)CN5CCOCC5)(CC3)C4)nc(-c3ccc(C(=O)Nc4cc(C(F)(F)F)ccn4)cc3)c12` [Compound A-10-10, 4-(8-amino-3-(4-(2-morpholinoacetamido)bicyclo[2.2.1]heptan-1-yl)imidazo[1,5-a]pyrazin-1-yl)-N-(4-(trifluoromethyl)pyridin-2-yl)benzamide] registered an AUC0-INF in data set [1] (p.o.) of 14867 ng·h/mL. Moreover, the Cmax in data set [1] (p.o.) turned out to be 641 ng/mL; in data set [1] (male, beagle, plasma, po, p.o., read-out: Cmax), 641 ng/mL. Also, the AUC(0-inf) in data set [1] (male, beagle, plasma, po) came out at 14900 ng·h/mL. For the same compound, in data set [1] (male, beagle, plasma, po), the Tmax is 8 h. Also, the half-life in data set [1] (male, beagle, plasma, po) was 14.2 h. Moreover, the IC50 with OCI-LY10 is 10.3 nM; in the data set on TMD-8, 2.9 nM; on BTK(wt), 77 nM; at BTK(C481S) it was 66 nM and 63 nM. Moreover, the xenograft tumors disappearance entry in the data set with OCI-LY10 xenograft tumor (25 mg/kg group, after 28 days of administration) was “disappeared completely”; with OCI-LY10 xenograft tumor (50 mg/kg group, after 21 days of administration), “completely disappeared”. Further, the “tolerance of tumor-bearing mice” value in the data set with OCI-LY10 xenograft tumor (all dosages) is “good tolerance”. Moreover, the “effect on body weight of tumor-bearing mice” value in the data set with OCI-LY10 xenograft tumor (all treatment groups) is given as “no significant weight loss”. Also, the TGI in the data set on OCI-LY10 xenograft tumor (intragastric 25 mg/kg) and in the data set with OCI-LY10 xenograft tumor (intragastric 50 mg/kg) was 110% in each case.
